# Measurements reported in ChEMBL document CHEMBL1201862, “PubChem BioAssay data set” (2004).
# Structures can show the parent of a compound that is named as a salt. Calls of active or inactive are those of the source.
# What was measured:
# [1] = target: E3 ubiquitin-protein ligase Mdm2 (Homo sapiens, UniProt Q00987); assay: MDM2-luc reporter signal enhancers, multi-concentration potency testing, MDM2 ubiquitin-protein ligase inhibitor program, whole-cell format, luminescence detection, 384-well microplate (AID 1394); format: functional;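 further: MDM2 E3 inhibitors raise luminescence so EC50 is for signal enhancement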
# [2] = system: Vero; assay: inhibition of WNV-induced cytopathic effect – cell-based, CPE readout (AID 1621); format: functional; conditions: Chlorocebus sabaeus
# [3] = system: H4; assay: Luminescence Cell-Based Dose Response HTS to Identify Activators of 5'UTR Stem-Loop Driven Prion Protein mRNA Translation in H4 Neuroglioblastoma Cells. [Related pubchem assays: 1829 (Project Summary), 1814 (Primary HTS)]; format: functional; conditions: Homo sapiens
# [4] = target: Potassium voltage-gated channel subfamily KQT member 2 (Rattus norvegicus, UniProt O88943, W236L); assay: potentiation of rat KCNQ2 current – cell-based, automated electrophysiology, mechanism study for KCNQ2 potentiator project, dose response (AID 2603); format: functional
# [5] = Luminescence Cell-Based Dose Response to Identify Activators of Luciferase Translation or Activity in H4-C Neuroglioblastoma Cells. [Related pubchem assays: 1829 (Project Summary), 1814 (Primary HTS)]; format: functional
# [6] = Luminescence Cell-Based Dose Response to Identify Activators of 5'UTR Stem-Loop Driven Prion Protein mRNA Translation in H4-C Neuroglioblastoma Cells. [Related pubchem assays: 1829 (Project Summary), 1814 (Primary HTS)]; format: functional
# [7] = Luminescence Cell-Based Dose Confirmation to Identify Activators of 5'UTR Stem-Loop Driven Alpha-Synuclein mRNA Translation in H4 Neuroglioblastoma Cells. [Related pubchem assays: 1829 (Project Summary), 1814 (Primary HTS)]; format: functional
# [8] = Luminescence Cell-Based Dose Response HTS to Identify Activators of Luciferase Translation or Activity in H4 […] Cells. [Related pubchem assays: 1829 (Project Summary), 1814 (Primary HTS)]; format: functional
# [9] = Plasmodium falciparum Dd2 Sybr green parasite growth Measured in Cell-Based and Microorganism Combination System Using Plate Reader - 2153-01_Inhibitor_Dose_DryPowder_Activity_Set10.; format: functional
# [10] = target: Vasopressin V1a receptor (Homo sapiens, UniProt P37288); assay: Fluorescence-based cell-based high throughput dose response screening assay for agonists of the vasopressin 1 receptor (V1R).; format: functional
# [11] = target: T1, Heat shock factor protein 1 (Mus musculus, UniProt P38532); assay: decrease of HSF1-responsive luciferase luminescence – cell-based, NIH3T3, dose retest, confirmation (AID 2382); format: functional;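 further: NIH3T3 fibroblasts with HSF1-driven luciferase reporter stressed by proteasome inhibitor MG132; luminescence from HSF1-driven luciferase expression after 8 hours of MG132 stress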
# T1 sequence (P38532 whole entry): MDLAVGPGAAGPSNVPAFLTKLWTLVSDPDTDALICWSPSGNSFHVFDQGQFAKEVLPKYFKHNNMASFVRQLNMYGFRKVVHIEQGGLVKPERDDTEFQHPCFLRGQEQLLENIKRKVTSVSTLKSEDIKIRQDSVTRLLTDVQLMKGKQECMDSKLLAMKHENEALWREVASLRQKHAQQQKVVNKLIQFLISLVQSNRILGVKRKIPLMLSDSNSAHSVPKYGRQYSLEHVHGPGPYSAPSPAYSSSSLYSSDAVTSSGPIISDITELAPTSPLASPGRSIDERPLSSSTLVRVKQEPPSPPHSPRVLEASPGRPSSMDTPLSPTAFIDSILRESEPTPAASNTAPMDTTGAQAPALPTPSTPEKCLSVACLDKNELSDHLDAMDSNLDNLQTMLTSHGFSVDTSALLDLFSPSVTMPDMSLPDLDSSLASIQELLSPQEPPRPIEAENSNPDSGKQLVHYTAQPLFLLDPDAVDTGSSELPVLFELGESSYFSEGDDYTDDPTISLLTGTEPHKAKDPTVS
# [12] = target: Oxytocin receptor (Homo sapiens, UniProt P30559); assay: Counterscreen for vasopressin 1 receptor (V1R) agonists: Fluorescence-based cell-based high throughput dose response assay for agonists of the Oxytocin Receptor (OXTR). [Related pubchem assays: 2435 (Primary screen (OXTR agonists in singlicate)), 434964 (Confirmation screen (V1R agonists in triplicate)), 434969 (Counterscreen (OXTR agonists in …; format: functional
# [13] = cells; format: functional, cell-based; conditions: INS-1E
# [14] = rise of 2N DNA cells, HeLa – IC50, dose response (AID 1117349); format: functional, cell-based
# [15] = rise of 4N DNA cells, HeLa – IC50, dose response (AID 1117351); format: functional, cell-based
# [16] = IC50 of insulin release inhibition, rat insulinoma INS-1E line, 5 mM glucose, cell-based (AID 1117331); format: functional
# [17] = CellTiter-Glo luminescence survival assay, SW480 colon tumor line, concentration-response curve, half-maximal inhibitory concentration (AID 1117338); format: functional
# [18] = target: Dual specificity tyrosine-phosphorylation-regulated kinase 1A (Rattus norvegicus, UniProt Q63470); format: biochemical, Homo sapiens
# [19] = system: P388; assay: cells; format: functional; conditions: Mus musculus
# [20] = HEK-293T viability loss after treatment – luminescence, T-cell screen hits, cytotoxicity control for TCR NF-kB inhibitor project, dose response (AID 489026); format: functional, cell-based;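 further: cells exposed to compound about 14 hours before the viability readout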
# [21] = viability loss in THP-1 monocytes – THP-1 cells, cytotoxicity control for Vif-APOBEC3G degradation inhibitor project, dose response (AID 1117359); format: functional; conditions: THP-1
# [22] = SNU-C1 cell viability reduction, dose response, CellTiter-Glo luminescence (AID 1117323); format: functional, cell-based
# [23] = system: P388/ADR; assay: cells; format: functional; conditions: Mus musculus
# [24] = HGIII-sPLA2 enzyme inhibition potency – biochemical, QFRET, IC50, dose response (AID 743457);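 further: green fluorescence rise as the enzyme cleaves BODIPY PC-A2 in liposomes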
# [25] = cytotoxicity toward HCT116 cells – cell-based, CellTiter-Glo luminescence, IC50, dose response (AID 1117332); format: functional; conditions: HCT-116
# [26] = target: Glutathione-S-transferase (Schistosoma japonicum, UniProt Q26513); assay: GST-antibody interaction or FRET quenching – biochemical, TR-FRET, artefact control for Vif-APOBEC3G degradation inhibitor project, dose response (AID 1117362); format: functional
# [27] = system: SN12K1; assay: cells; format: functional; conditions: Homo sapiens
# [28] = HCT116 cell viability decrease, GSK3B pretreatment – CellTiter-Glo, IC50, dose response (AID 1117339); format: functional; conditions: HCT-116
# [29] = target: Paired box protein Pax-8 (Homo sapiens, UniProt Q06710); assay: PAX8 transcriptional activity inhibition in RMG-I – RMG-I cells, luciferase, cherry-pick, dose response (AID 687027); format: functional, cell-based;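 further: luciferase reporter driven by Pax8 target thyroperoxidase promoter measured by SteadyGlo luminescence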
# [30] = reduction of Shn3 3'UTR-driven luciferase in osteoblasts – cell-based, Clone20 osteoblasts, firefly luciferase, cherry-picked, dose response (AID 624132); format: functional;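 further: firefly luciferase luminescence from reporter carrying the Shn3 3'UTR in osteoblasts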
# [31] = Reduced DLD-1 viability, concentration-response, CellTiter-Glo luminescence (AID 1117352); format: functional
# [32] = non-specific 3'UTR reporter inhibition in Clone20-Shn3RL – cell-based, Renilla luciferase, cherry-picked, counter-screen for Shn3 inhibitor project, dose response (AID 624133); format: functional
# [33] = target: T2, Rac GTPase-activating protein 1 (Homo sapiens, UniProt Q9H0H5); assay: blockers of MgcRacGAP-driven Rac1 GTP hydrolysis – biochemical, ADP Hunter fluorescence, primary and confirmatory, confirmation (AID 624330); format: functional
# T2 sequence (Q9H0H5 whole entry): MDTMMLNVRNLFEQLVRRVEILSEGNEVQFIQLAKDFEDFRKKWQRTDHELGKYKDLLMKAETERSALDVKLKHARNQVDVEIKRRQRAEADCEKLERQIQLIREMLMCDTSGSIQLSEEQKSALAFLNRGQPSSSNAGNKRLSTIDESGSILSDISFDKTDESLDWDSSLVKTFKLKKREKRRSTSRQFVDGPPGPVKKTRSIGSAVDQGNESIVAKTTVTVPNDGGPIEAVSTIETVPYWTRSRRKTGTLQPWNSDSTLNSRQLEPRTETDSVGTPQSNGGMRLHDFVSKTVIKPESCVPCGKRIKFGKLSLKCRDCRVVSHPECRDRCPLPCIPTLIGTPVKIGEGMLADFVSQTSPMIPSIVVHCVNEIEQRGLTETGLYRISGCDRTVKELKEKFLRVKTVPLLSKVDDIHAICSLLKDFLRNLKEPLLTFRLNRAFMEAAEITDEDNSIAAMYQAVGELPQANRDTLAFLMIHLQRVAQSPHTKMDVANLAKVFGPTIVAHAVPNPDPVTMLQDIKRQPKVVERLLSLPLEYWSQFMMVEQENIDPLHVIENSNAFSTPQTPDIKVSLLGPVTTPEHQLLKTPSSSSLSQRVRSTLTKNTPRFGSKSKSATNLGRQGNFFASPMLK
# [34] = target: T3, DNA repair protein RAD52 homolog (Homo sapiens, UniProt P43351); format: functional, biochemical
# T3 sequence (P43351 whole entry): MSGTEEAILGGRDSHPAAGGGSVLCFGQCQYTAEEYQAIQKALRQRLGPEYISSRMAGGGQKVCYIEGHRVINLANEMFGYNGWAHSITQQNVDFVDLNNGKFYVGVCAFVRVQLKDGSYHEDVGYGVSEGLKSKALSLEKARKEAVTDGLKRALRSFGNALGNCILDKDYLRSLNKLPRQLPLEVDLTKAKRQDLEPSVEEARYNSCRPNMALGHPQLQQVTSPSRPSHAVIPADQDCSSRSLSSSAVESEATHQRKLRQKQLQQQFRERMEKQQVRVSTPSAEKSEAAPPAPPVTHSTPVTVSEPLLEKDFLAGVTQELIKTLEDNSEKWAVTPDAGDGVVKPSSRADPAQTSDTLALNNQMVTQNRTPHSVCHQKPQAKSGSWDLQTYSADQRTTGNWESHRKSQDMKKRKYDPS
# [35] = loss of viability in HepG2 cells – cell-based, CellTiter-Glo, cherry-picked, cytotoxicity control for Shn3 inhibitor project, dose response (AID 624134); format: functional
# [36] = target: Nonstructural protein 1 (Influenza A virus, UniProt Q194T2); format: functional, Influenza A virus (A/California/07/2009(H1N1))
# [37] = RKO cell viability reduction, dose response, CellTiter-Glo luminescence (AID 1117322); format: functional
# Chain of Vasopressin V1a receptor (P37288 whole entry): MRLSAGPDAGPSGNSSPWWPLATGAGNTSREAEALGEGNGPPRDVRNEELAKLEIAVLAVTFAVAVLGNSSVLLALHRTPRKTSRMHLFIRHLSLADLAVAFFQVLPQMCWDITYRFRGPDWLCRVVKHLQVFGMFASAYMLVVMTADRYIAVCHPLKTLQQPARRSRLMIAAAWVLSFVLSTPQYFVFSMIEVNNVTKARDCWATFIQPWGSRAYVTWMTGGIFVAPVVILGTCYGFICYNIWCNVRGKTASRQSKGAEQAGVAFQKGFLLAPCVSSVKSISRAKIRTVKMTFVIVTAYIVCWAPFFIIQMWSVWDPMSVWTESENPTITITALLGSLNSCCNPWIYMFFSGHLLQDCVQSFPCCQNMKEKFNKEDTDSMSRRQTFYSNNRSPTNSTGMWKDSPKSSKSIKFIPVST
# Chain of Glutathione-S-transferase (Q26513 whole entry): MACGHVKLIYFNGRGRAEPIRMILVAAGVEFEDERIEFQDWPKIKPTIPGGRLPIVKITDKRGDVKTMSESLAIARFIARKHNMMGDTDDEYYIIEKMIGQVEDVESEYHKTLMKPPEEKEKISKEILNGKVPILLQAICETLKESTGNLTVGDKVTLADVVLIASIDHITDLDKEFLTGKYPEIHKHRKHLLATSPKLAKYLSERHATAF
# Chain of E3 ubiquitin-protein ligase Mdm2 (Q00987 whole entry): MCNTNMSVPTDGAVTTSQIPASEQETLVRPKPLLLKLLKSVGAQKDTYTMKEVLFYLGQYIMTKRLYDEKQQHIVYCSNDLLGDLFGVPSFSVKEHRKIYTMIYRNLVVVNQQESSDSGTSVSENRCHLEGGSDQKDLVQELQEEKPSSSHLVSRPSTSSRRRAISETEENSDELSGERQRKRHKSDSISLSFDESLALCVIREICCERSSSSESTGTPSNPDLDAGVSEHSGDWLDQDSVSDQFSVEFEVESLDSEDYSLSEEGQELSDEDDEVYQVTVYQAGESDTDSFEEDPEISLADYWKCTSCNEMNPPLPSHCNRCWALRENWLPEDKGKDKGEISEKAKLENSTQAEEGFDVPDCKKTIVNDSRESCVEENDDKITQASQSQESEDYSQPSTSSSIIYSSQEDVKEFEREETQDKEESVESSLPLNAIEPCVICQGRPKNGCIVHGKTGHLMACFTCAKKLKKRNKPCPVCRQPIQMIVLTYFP
# Chain of Paired box protein Pax-8 (Q06710 whole entry): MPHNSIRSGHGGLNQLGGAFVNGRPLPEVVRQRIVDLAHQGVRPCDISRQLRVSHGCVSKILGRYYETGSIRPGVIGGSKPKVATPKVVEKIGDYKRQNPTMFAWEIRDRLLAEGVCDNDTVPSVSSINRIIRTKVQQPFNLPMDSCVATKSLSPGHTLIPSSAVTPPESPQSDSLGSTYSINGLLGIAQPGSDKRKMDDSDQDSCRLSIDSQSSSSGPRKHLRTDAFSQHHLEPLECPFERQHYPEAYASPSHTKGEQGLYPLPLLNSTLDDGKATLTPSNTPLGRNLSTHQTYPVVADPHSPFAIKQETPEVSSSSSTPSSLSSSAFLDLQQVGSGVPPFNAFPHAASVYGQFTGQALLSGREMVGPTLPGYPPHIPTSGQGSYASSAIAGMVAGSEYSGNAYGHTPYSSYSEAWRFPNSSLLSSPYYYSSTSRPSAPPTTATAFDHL
# Chain of Oxytocin receptor (P30559 whole entry): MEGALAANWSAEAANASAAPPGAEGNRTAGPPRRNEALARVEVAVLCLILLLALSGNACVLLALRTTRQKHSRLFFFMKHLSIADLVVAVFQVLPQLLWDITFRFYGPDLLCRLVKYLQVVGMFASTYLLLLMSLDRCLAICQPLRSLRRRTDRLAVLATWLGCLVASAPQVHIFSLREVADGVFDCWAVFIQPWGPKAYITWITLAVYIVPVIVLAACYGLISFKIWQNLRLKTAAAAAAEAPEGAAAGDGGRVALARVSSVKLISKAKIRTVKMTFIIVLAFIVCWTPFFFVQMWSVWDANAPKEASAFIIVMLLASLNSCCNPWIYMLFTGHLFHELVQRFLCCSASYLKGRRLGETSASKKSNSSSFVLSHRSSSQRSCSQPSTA
# Chain of Potassium voltage-gated channel subfamily KQT member 2 (O88943 whole entry W236L): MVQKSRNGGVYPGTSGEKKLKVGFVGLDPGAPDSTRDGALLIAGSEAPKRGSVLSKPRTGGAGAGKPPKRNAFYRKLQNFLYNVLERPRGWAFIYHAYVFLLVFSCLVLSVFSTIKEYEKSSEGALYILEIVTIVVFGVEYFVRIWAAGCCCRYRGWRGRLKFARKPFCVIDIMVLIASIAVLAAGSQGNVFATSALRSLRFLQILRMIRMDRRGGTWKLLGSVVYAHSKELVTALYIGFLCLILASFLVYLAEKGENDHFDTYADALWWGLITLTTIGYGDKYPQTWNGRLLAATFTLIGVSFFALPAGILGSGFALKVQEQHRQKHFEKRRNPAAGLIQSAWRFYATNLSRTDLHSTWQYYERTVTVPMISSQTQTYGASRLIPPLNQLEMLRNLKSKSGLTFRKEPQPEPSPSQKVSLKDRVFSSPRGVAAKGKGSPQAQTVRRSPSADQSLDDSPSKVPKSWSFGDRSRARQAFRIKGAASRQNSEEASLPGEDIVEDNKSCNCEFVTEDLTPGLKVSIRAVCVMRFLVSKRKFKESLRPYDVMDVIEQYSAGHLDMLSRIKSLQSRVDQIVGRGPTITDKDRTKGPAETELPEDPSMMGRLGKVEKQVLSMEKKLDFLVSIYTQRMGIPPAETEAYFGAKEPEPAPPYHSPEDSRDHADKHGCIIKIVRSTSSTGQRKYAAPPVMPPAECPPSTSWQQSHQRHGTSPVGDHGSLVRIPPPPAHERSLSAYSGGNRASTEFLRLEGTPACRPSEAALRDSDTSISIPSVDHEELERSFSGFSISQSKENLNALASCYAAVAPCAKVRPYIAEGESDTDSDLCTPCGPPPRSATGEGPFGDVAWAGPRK
# Chain of Nonstructural protein 1 (Q194T2 whole entry): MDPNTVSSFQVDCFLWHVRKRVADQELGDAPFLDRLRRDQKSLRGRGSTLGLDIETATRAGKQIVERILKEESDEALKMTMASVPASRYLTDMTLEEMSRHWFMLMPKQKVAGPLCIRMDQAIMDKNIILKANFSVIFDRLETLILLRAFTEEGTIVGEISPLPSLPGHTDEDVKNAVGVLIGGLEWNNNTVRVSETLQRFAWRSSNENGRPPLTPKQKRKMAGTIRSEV
smiles,measurement,setting,value
O=C(CSc1nnc(-c2cccnc2)n1C1CCCCC1)NC1CCCCC1,EC50,[1],40 nM (not active)
Cc1ccc2nc(O)c(CN(CCCN(C)C)C(=O)Nc3ccc(Cl)cc3)cc2c1,IC50,[2],17.8 µM (active)
Cc1ccc(NC(=O)NCC2CC2(Cl)Cl)cc1 (stereo not drawn),EC50,[3],8.76 µM (active)
same,EC50,[4],2.17 µM (active)
same,EC50,[5],399 nM (active)
same,EC50,[6],> 12 µM (not active)
same,EC50,[7],1.72 µM (active)
same,EC50,[8],226 nM (active)
COc1ccc(-c2ccccc2[C@@H]2[C@H](C#N)N(C(=O)C3CCCC3)[C@H]2CO)cc1,AC50,[9],19.1 µM (active)
CCN1C(=S)SC(=O)C1=C1C=C(C)N(Cc2ccco2)C(C)=C1,EC50,[3],< 0.1 µM (active)
same,EC50,[10],10.5 µM (not active)
same,EC50,[5],263 nM (active)
same,EC50,[6],0.313 µM (active)
same,EC50,[7],0.287 µM (active)
same,EC50,[11],> 195 µM (not active)
same,EC50,[12],16.7 µM (not active)
Cc1ccc(S(=O)(=O)NC(=O)NN2CC3CCCC3C2)cc1 (stereo not drawn) [GLICLAZIDE],IC50,[13],> 33.3 µM (inactive)
same,IC50,[14],> 10 µM (inactive)
same,IC50,[15],> 10 µM (inactive)
same,IC50,[16],1.83 µM (active)
O=C1c2c(O)ccc(O)c2C(=O)c2c(NCCNCCO)ccc(NCCNCCO)c21 [MITOXANTRONE HYDROCHLORIDE],IC50,[17],1.83 µM (active)
same,AC50,[18],9.51 µM (active)
same,GI50,[19],3.55 nM (active)
same,IC50,[20],37.9 µM (inactive)
same,CC50,[21],< 80 nM (active)
same,IC50,[22],1.72 µM (active)
same,GI50,[23],22.2 nM (active)
same,IC50,[14],> 10 µM (inactive)
same,IC50,[24],> 122 µM (inactive)
same,IC50,[15],> 10 µM (inactive)
same,IC50,[25],1.23 µM (active)
same,IC50,[26],3.85 µM (active)
same,GI50,[27],5.3 nM (active)
same,IC50,[28],1 nM (active)
same,AC50,[29],690 nM (active)
same,AC50,[30],658 nM (active)
same,IC50,[31],1.6 µM (active)
same,AC50,[32],33.6 µM (active)
same,IC50,[33],14.8 µM (active)
same,AC50,[34],< 150 nM (active)
same,AC50,[35],535 nM (active)
same,IC50,[36],1.1 µM (active)
same,IC50,[37],1.03 µM (active)
